Measurements published in ChEMBL document CHEMBL1240508, “Design and synthesis of Hsp90 inhibitors: exploring the SAR of Sansalvamide A derivatives” (Bioorg Med Chem, 2010).
≈ marks a conversion by molar mass, not a printed value. Calls of active or inactive are those of the source. No cut-off for these calls is given here. Non-standard residues stand in square brackets, D forms with d. Residues, ends and D or L forms follow the SMILES beside them. *: point of attachment. dNMeF = CN[C@H](Cc1ccccc1)C(=O)O; Cha = N[C@@H](CC1CCCCC1)C(=O)O; NMeK = CN[C@@H](CCCCN)C(=O)O; Boc = CC(C)(C)OC(=O)*; Bn = c1ccc(C*)cc1

Experiments:
[1] = system: HCT-116; test: Cytotoxicity against human HCT116 cells at 10 uM after 72 hrs by [3H]thymidine incorporation assay; details: read-out: GI
[2] = system: HCT-116; test: Cytotoxicity against human HCT116 cells after 72 hrs by [3H]thymidine incorporation assay
[3] = Solubility of the compound; type: physicochemical
[4] = Inhibition of Hsp90 assessed as IP6K2 interaction at up to 11 uM by Western blotting
[5] = Inhibition of Hsp90 assessed as Her2 interaction at up to 11 uM by Western blotting
[6] = Chemical stability of the compound assessed as half life; type: physicochemical
[7] = Efflux ratio of permeability in human Caco-2 cells; type: ADME, cell-based

Row | SMILES | inhibition of growth at 10 µM [1] | other results
1 | CC(C)C[C@@H]1NC(=O)[C@H](CC(C)C)NC(=O)[C@H](C(C)C)NC(=O)[C@H](CC(C)C)NC(=O)[C@@H](Cc2ccc(O)cc2)NC1=O | 50% | 
2 | CC(C)C[C@@H]1NC(=O)[C@H]([C@@H](OCc2ccccc2)c2ccccc2)NC(=O)[C@@H](Cc2ccccc2)NC(=O)[C@@H](CC(C)C)NC(=O)[C@H](C(C)C)N(C)C1=O | 64% | IC50 [2]: 5.8 µM
3 | CC(C)C[C@@H]1NC(=O)[C@H](Cc2ccccc2)NC(=O)[C@H](CCCCNC(=O)OC(C)(C)C)N(C)C(=O)[C@H](CC(C)C)NC(=O)[C@H](C(C)C)NC1=O (cyclo(FLVL[NMeK](Boc))) | 58% | 
4 | CC(C)C[C@@H]1NC(=O)[C@H](CC(C)C)NC(=O)[C@H](C(C)C)NC(=O)[C@H](CC(C)C)NC(=O)[C@@H](Cc2c[nH]c3ccccc23)NC1=O | 30% | 
5 | CC(C)C[C@@H]1NC(=O)[C@H](CC(C)C)N(C)C(=O)[C@H](C(C)C)NC(=O)[C@@H](CC(C)C)NC(=O)[C@H](Cc2ccccc2)NC1=O | 3% | 
6 | CC(C)C[C@@H]1NC(=O)[C@H](CC(C)C)NC(=O)[C@H](C(C)C)NC(=O)[C@@H](Cc2ccccc2)N(C)C(=O)[C@H](Cc2ccccc2)NC1=O | 99% | 
7 | CC(C)C[C@@H]1NC(=O)[C@H](CC(C)C)NC(=O)[C@@H](C(C)C)NC(=O)[C@H](CC(C)C)NC(=O)[C@H](Cc2ccccc2)NC1=O | 8% | 
8 | CC(C)C[C@@H]1NC(=O)[C@H](CC(C)C)NC(=O)[C@H](C(C)C)NC(=O)[C@H](CC(C)C)NC(=O)[C@@H](Cc2ccccc2)NC1=O | 26% | 
9 | CC(C)C[C@@H]1NC(=O)[C@H](CC(C)C)NC(=O)[C@H](C(C)C)NC(=O)[C@@H](CC(C)C)NC(=O)[C@@H](Cc2ccccc2)NC1=O | 14% | 
10 | CC(C)C[C@@H]1NC(=O)[C@H](Cc2ccccc2)NC(=O)[C@@H](Cc2ccccc2)NC(=O)[C@@H](CCCCNC(=O)OCc2ccccc2)NC(=O)[C@H](C(C)C)N(C)C1=O | 36% | 
11 | CC(C)C[C@@H]1NC(=O)[C@H](Cc2ccccc2)NC(=O)[C@H](CC(C)C)N(C)C(=O)[C@H](CC(C)C)NC(=O)[C@H](C(C)C)NC1=O | 35% | 
12 | CC(C)[C@H]1NC(=O)[C@@H](Cc2ccccc2)N(C)C(=O)[C@H](Cc2ccccc2)NC(=O)[C@H](COCc2ccccc2)NC(=O)[C@H](CC2CCCCC2)NC1=O (cyclo([Cha]S(Bn)F[dNMeF][dV])) | 93% | solubility [3]: < 5 µM; inhibition [4]: Active; inhibition [5]: Active; IC50 [2]: ≤ 1.9 µM
13 | CC(C)C[C@@H]1NC(=O)[C@H](Cc2ccccc2)NC(=O)[C@H](CCCCN)N(C)C(=O)[C@H](CC(C)C)NC(=O)[C@H](C(C)C)NC1=O (cyclo(FLVL[NMeK])) | 0% | 
14 | CC(C)C[C@@H]1NC(=O)[C@@H](Cc2ccccc2)NC(=O)[C@@H](Cc2ccccc2)NC(=O)[C@@H](CC(C)C)N(C)C(=O)[C@H](C(C)C)N(C)C1=O | 15% | 
15 | CC(C)C[C@@H]1NC(=O)[C@H](CC(C)C)NC(=O)[C@@H](C(C)C)NC(=O)[C@@H](Cc2ccccc2)NC(=O)[C@H](Cc2ccccc2)NC1=O | 4% | 
16 | CC(C)C[C@@H]1NC(=O)[C@H](Cc2ccccc2)NC(=O)[C@H](CCCCNC(=O)OC(C)(C)C)NC(=O)[C@H](CC(C)C)NC(=O)[C@@H](C(C)C)NC1=O | 9% | 
17 | CC(C)C[C@@H]1NC(=O)[C@H](C(C)C)NC(=O)[C@@H](Cc2ccccc2)N(C)C(=O)[C@H](Cc2ccccc2)NC(=O)[C@@H](CC(C)C)N(C)C1=O | 47% | 

Row | SMILES | inhibition of growth at 10 µM [1] | other results
18 | CC(C)C[C@@H]1NC(=O)[C@@H](CC(C)C)NC(=O)[C@@H](C(C)C)NC(=O)[C@H](CC(C)C)N(C)C(=O)[C@H](Cc2ccccc2)NC1=O | 30% | 
19 | CC(C)C[C@@H]1NC(=O)[C@H](CC(C)C)NC(=O)[C@H](C(C)C)NC(=O)[C@H](CC(C)C)NC(=O)[C@H](Cc2ccccc2)NC1=O |  | IC50 [2]: 19.7 µM
20 | CC(C)C[C@@H]1NC(=O)[C@@H]([C@H](OCc2ccccc2)c2ccccc2)NC(=O)[C@@H](Cc2ccccc2)NC(=O)[C@@H](CC(C)C)NC(=O)[C@H](C(C)C)N(C)C1=O | 94% | half-life [6]: > 2.87 h; solubility [3]: 7 µM (≈ 5.18 µg/mL); IC50 [2]: 3.2 µM; efflux ratio [7]: 3
21 | CC(C)C[C@@H]1NC(=O)[C@@H]([C@@H](OCc2ccccc2)c2ccccc2)NC(=O)[C@@H](Cc2ccccc2)NC(=O)[C@@H](CC(C)C)NC(=O)[C@H](C(C)C)N(C)C1=O (mixture of isomers) | 63% | IC50 [2]: 8.9 µM
22 | CC(C)[C@H]1NC(=O)[C@@H](Cc2ccccc2)N(C)C(=O)[C@H](Cc2ccccc2)NC(=O)[C@H](CO)NC(=O)[C@H](CC2CCCCC2)NC1=O | 18% | 
23 | CC(C)C[C@@H]1NC(=O)[C@@H](Cc2ccccc2)NC(=O)[C@@H](CC(C)C)NC(=O)[C@H](CC(C)C)N(C)C(=O)[C@H](C(C)C)NC1=O | 18% | 
24 | CC(C)C[C@@H]1NC(=O)[C@H](CC(C)C)NC(=O)[C@H](C(C)C)NC(=O)[C@@H](Cc2ccccc2)NC(=O)[C@H](Cc2ccccc2)NC1=O | 21% | 
25 | CC(C)C[C@@H]1NC(=O)[C@H](C(C)C)NC(=O)[C@@H](Cc2ccccc2)N(C)C(=O)[C@H](Cc2ccccc2)NC(=O)[C@H](CCCCN)NC1=O (cyclo(F[dNMeF]VLK)) | 0% | 
26 | CC(C)C[C@@H]1NC(=O)[C@H](Cc2ccccc2)NC(=O)[C@@H](CC(C)C)NC(=O)[C@@H](CC(C)C)NC(=O)[C@H](C(C)C)NC1=O | 20% | 
27 | CC(C)[C@H]1NC(=O)[C@@H](Cc2ccccc2)NC(=O)[C@H](Cc2ccccc2)NC(=O)[C@H](COCc2ccccc2)NC(=O)[C@H](CC2CCCCC2)NC1=O (cyclo([Cha]S(Bn)F[dF][dV])) | 10% | inhibition [4]: inactive; inhibition [5]: inactive
28 | CC(C)C[C@@H]1NC(=O)[C@H](Cc2ccccc2)NC(=O)[C@@H](Cc2ccccc2)NC(=O)[C@@H](CC(C)C)NC(=O)[C@H](C(C)C)NC1=O | 28% | 
29 | CC(C)C[C@@H]1NC(=O)[C@H](Cc2ccccc2)NC(=O)[C@H](CCCCN)NC(=O)[C@H](CC(C)C)NC(=O)[C@@H](C(C)C)NC1=O (cyclo(FL[dV]LK)) | 0% | 
30 | CC(C)C[C@@H]1NC(=O)[C@H](Cc2ccccc2)NC(=O)[C@H](CCCCNC(=O)OC(C)(C)C)NC(=O)[C@H](CC(C)C)NC(=O)[C@H](C(C)C)NC1=O | 0% | 
31 | CC(C)C[C@@H]1NC(=O)[C@H](Cc2ccccc2)NC(=O)[C@H](CCCCN)NC(=O)[C@H](CC(C)C)NC(=O)[C@H](C(C)C)NC1=O (cyclo(FLVLK)) | 0% | 
32 | CC(C)C[C@@H]1NC(=O)[C@@H](C(C)C)NC(=O)[C@@H](CC(C)C)NC(=O)[C@H](Cc2ccccc2)N(C)C(=O)[C@H](CC(C)C)NC1=O | 30% | 
33 | CC(C)C[C@@H]1NC(=O)[C@H](Cc2ccccc2)NC(=O)[C@@H](CC(C)C)N(C)C(=O)[C@H](CC(C)C)NC(=O)[C@H](C(C)C)NC1=O | 32% | 
34 | CC(C)C[C@@H]1NC(=O)[C@H](C(C)C)NC(=O)[C@@H](CC(C)C)NC(=O)[C@@H](Cc2ccccc2)NC(=O)[C@H](CC(C)C)N(C)C1=O | 15% | 
